In PubChem BioAssay (NCI):
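All cell lines were grown in 96-well plates and treated with compound for 48 hours. GI50 marks 50% less growth. TGI marks complete inhibition of growth.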

Legend:
Assay in all cases: NCI tumour cell line growth inhibition, 48 h
HOP-92 NSCLC = test system: HOP-92 NSCLC
HCT-116 colon = test system: HCT-116 colon
NCI-H226 lung = test system: NCI-H226 lung
OVCAR-4 ovarian = test system: OVCAR-4 ovarian
SK-MEL-28 melanoma = test system: SK-MEL-28 melanoma
CAKI-1 renal = test system: CAKI-1 renal
SW-620 colon = test system: SW-620 colon
MDA-MB-435 = test system: MDA-MB-435
MDA-MB-231 breast = test system: MDA-MB-231 breast
PC-3 prostate = test system: PC-3 prostate

Compound	TGI (HOP-92 NSCLC) [µM]	TGI (HCT-116 colon) [µM]	TGI (NCI-H226 lung) [µM]	TGI (OVCAR-4 ovarian) [µM]	TGI (SK-MEL-28 melanoma) [µM]	TGI (CAKI-1 renal) [µM]	TGI (SW-620 colon) [µM]	TGI (MDA-MB-435) [µM]	TGI (MDA-MB-231 breast) [µM]	TGI (PC-3 prostate) [µM]	GI50 (MDA-MB-435) [µM]	GI50 (HOP-92 NSCLC) [µM]	GI50 (MDA-MB-231 breast) [µM]	GI50 (NCI-H226 lung) [µM]	GI50 (OVCAR-4 ovarian) [µM]	GI50 (SK-MEL-28 melanoma) [µM]	GI50 (CAKI-1 renal) [µM]	GI50 (PC-3 prostate) [µM]	GI50 (SW-620 colon) [µM]	GI50 (HCT-116 colon) [µM]
Cc1ccc(NC(=O)/C(=N\Nc2ccc([N+](=O)[O-])cc2[N+](=O)[O-])C2C(=O)NC(=O)NC2=O)cc1	> 100	> 100	> 100	> 100	> 100	> 100	> 100													
CCC12CCCC(=O)N1C(CO)C(c1ccccc1)O2 (stereo unspecified)	> 100	> 100		> 100	> 100	> 100	> 100													
CC(C)NC(=O)OCCS(=O)c1c(Cl)c(Cl)nn1C (stereo unspecified)		> 100	> 100	> 100	> 100	> 100	> 100	56.3	70.7	> 100										
CCCCCCCCCc1cc(=O)c2ccc(O)cc2o1	64.6	> 100	> 100	> 100	> 100	81.8	> 100													
Clc1nc(Cl)c2ncn(Cc3ccc(COc4cccc(OCc5ccc(Cn6cnc7c(Cl)nc(Cl)nc76)cc5)c4)cc3)c2n1	> 100		60.3	> 100	> 100	> 100	> 100	> 100	53.2	> 100	26.7	36.2	17.4	21	15.1	52.8	> 100	24.1	> 100	
COc1cc([C@@H]2c3cc4c(cc3[C@@H](NC(=O)c3ccccc3)C3COC(=O)[C@@H]32)OCO4)cc(OC)c1O (stereo partly specified)	87.9	28.8	8.28	> 100	87.7	> 100	> 100													
CC1=C(O)C(=O)C2C(=O)C1C(C)C2c1ccc(Cl)cc1 (stereo unspecified)	> 100		> 100	> 100	> 100	> 100	> 100													
COc1c(N2CCN(CN3C(=O)C(=Nc4ccc(S(=O)(=O)Nc5ncccn5)cc4)c4ccccc43)C(C)C2)c(F)cc2c(=O)c(C(=O)O)cn(C3CC3)c12 (stereo unspecified)		> 50	> 50	> 50	> 50	> 50	39.4	> 50	> 50	> 50	> 50		> 50	32.1	> 50	> 50	48	> 50	10.8	18.2
NNC(=O)CCC(=O)NC1C2CC3CC(C2)CC1C3 (stereo unspecified)	> 100	> 100	> 100	> 100	> 100	> 100	> 100													
CCCCCCCCCCCC[n+]1ccc(CCCCCCCCC)cc1	0.944				2.86	2.93				1.93		0.0968				1.31	1.51	0.597		
N#CC(C(=O)C(=O)NCCCNC(=O)C(=O)C(C#N)c1ccccc1)c1ccccc1 (stereo unspecified)	> 100	> 100	> 100	> 100	> 100	> 100	> 100													
COc1ccc(NC(=O)c2cc(OC)c(OC)c(OC)c2)cc1	> 100	> 100	> 100	> 100	94.4	> 100	> 100													
COc1cccc(C(=O)C2C(=O)N(C)CCc3ccccc32)c1OC (stereo unspecified)	> 100	> 100	> 100	> 100	> 100	> 100	> 100													
CSc1nc2c(nc(N)n2C2OCC(O)C(O)C2O)c(=O)n1C (stereo unspecified)	> 100	> 100	> 100	> 100	> 100	> 100	> 100													
CC(=O)Oc1ccc(O)c(O)c1C/C=C(\C)CC/C=C(\C)CC/C=C(\C)CCC=C(C)C	0.886		2.27	1.72	2.19	8.03	1.21													
NC(C(=O)[O-])C(=O)[O-].NC1CCCCC1N.[Pt+4]		26.6		> 100	> 100	3.99	> 100	> 100	> 100	> 100	4.04		31.8		11.3	12.7	1.07	4.67	1.75	2.49
COc1cc(CNc2ccc(C(C)C)cc2)cc(OC)c1OC	50.2	23.6		65.8	72.7	45.1											16.9			
C=C1C(=O)O[C@H]2[C@H]1CC/C(COC(=O)N1CCC[C@H]1C(=O)Nc1ccc(OC)c(C(N)=O)c1O)=C\CC[C@@]1(C)O[C@@H]21	3.32	3.06	7.12	12.9	10.2		4.01	15.9	10.1	18.9	3.8	1.23	2.68	2.24	2.88	2.87		4.95	1.64	1.33
OCCCCCCOc1ccc(-c2cc(-c3ccccn3)nc(-c3ccccn3)c2)cc1	14.8	1.48	1.06	4.81	2.72	1.66	14.7	> 100		5.31										
COc1ccc(O)c(C#N)c1C#N		> 100	> 100	> 100		> 100	> 100													
CC(C)CC1=[N+]=C(NC#N)N=C(CCC(=O)Nc2ccccc2[N+](=O)[O-])C1	> 100	> 100	> 100	> 100	> 100	> 100	> 100													
O=C1C2=C(c3ccccc31)C(c1ccccc1)NC(=S)N2 (stereo unspecified)	97.1	> 100	> 100	> 100	> 100	> 100	> 100													
COc1nc2nccc-2c2occn12	> 100	> 100		> 100	> 100	> 100	> 100													
